Assay results as given in US8455523B2, “Compositions and methods for treating hyperlipidemias” (The Research Foundation of State University of New York, priority 2010, dated 2013).

Legend:
[1] = system: C57Bl/6J mice fed either a chow or western diet; test: MTP inhibitor BMS-212122-01 with or without lovastatin, pioglitazone or PBA in chow or western diet fed C57Bl/6J mice; assay type: in vivo; details: for hepatic triglycerides: MTPi 1 mg/kg/day one week, lovastatin 50 or pioglitazone 25 mg/kg/day added to MTPi; for hepatic free cholesterol: lovastatin or pioglitazone co-administered with MTPi; for Hepatic free fatty acids (FFA): lovastatin or pioglitazone with MTPi; for hepatic total and free cholesterol / hepatic triglycerides compared to western diet fed controls / plasma lipids: drug alone, one week; for plasma ALT/AST levels: lovastatin added to MTPi
Protocol: FIG. 13. Age matched wildtype C57/Bl6J animals chow fed animals were treated with DMSO (control) or MTP inhibitor (MTPi) for one week. […] All drugs were administered by oral gavage. Animals were sacrificed on day 7 and plasma and livers were harvested and analyzed. * represent comparison to DMSO control; # represent comparisons to WD control; @ represent comparisons to WD MTP inhibitor treatment.
FIG. 18. Age matched wildtype C57/BL6J were fed WD for one month and were administered MTPi, or 4-phenylbutyric acid (PBA) everyday for one week. All drugs were administered by oral gavage. Animals were sacrificed on day 7 and livers were harvested. * represent comparison DMSO control; # represent comparisons to HF MTP inhibitor treated animals.
C57BL/6J Black 6 mice (stock number 000664) were obtained from Jackson Laboratory and used for chow fed and western diet fed experiments. MTP inhibitor (BMS […]) (1 mg/kg/day), Lovastatin, Pioglitazone (Toronto Research Chemicals P471000) (25 mg/kg/day) and 4-phenylbutyric acid (Calbiochem 820986) (1 g/kg/day) were administered by oral gavage. Chow fed animals were treated for one week with either DMSO or MTP inhibitor. Western diet fed animals were fed DMSO, MTP inhibitor, Pioglitazone, MTP inhibitor+Pioglitazone, Lovastatin, MTP inhibitor+Lovastatin, 4-phenylbutyric acid, and MTP inhibitor+4-phenylbutyric acid. Chow fed animals were also injected with either PBS or Tunicamycin and animals were sacrificed at 4, 8, 12 and 24 hours.
(§1) All animals were kept in 07:00-19:00 h lighting schedule. […] Food was withdrawn 16 h before the sacrifice of the mice. On the day of the experiment, mice were anesthetized and blood was collected from the heart. Liver was collected, washed in ice-cold PBS, cut into small pieces and used for lipid extraction, histological staining, to measure different protein activities/quantities and for mRNA analysis. Lipids were extracted from the tissue homogenates following the Bligh and Dyer method. Triglyceride (Infinity TM Triglyceride, TR22421) and total cholesterol (Infinity TM Cholesterol, TR13421) levels in the tissues were determined using commercial kits (Thermo Scientific). Free cholesterol and free fatty acid levels were measured using kits from Wako Chemicals (Germany). Esterified cholesterol was calculated by subtracting the free cholesterol from the total cholesterol.
We next studied the effects of chemical inhibition of MTP in C57Bl/6J mice fed either a chow or western diet (WD) for 5 weeks. Chow fed animals were orally gavaged with either DMSO or MTP inhibitor BMS-212122-01 (MTPi; 1 mg/kg/day) for one week. WD fed animals were treated with DMSO, MTP inhibitor with or without lovastatin (50 mg/kg/day) or pioglitazone (25 mg/kg/day) daily by oral gavage for one week.

[2] = system: hyperlipidemic bonnet macaques; test: MTP inhibitor with or without pioglitazone or lovastatin in western diet fed bonnet macaques; assay type: in vivo, bonnet macaque monkeys; details: for plasma cholesterol: then MTP inhibitor one month ± Pioglitazone or Lovastatin; for Hepatic cholesterol, total and free: biopsies
Protocol: FIG. 14. Bonnet Macaque monkeys fed ad libitum WD diet for 40 days and were administered MTPi, Lovastatin, (Lovas) or Pioglitazone (Pio) everyday for one month. A-D* represent comparisons to the MTPi alone group. E-I* represent comparisons between baseline and post biopsies.
Eleven (11) Male bonnet macaque monkeys were fed western diet for 40 days and treated with MTP inhibitor (BMS 2122122-01) with or without either Pioglitazone or Lovastatin for one month. Plasma samples were obtained at Day 0, 20, 40, 47, 54, 61 and 68 days. Liver biopsies were obtained on Day 40 and Day 68. Biopsies were conducted over two days; 2 animals from each group were biopsied per day.
In order to ascertain if the effects seen were a species-specific effect, we studied the treatment of MTP inhibitors either alone or in conjunction with Pioglitazone or Lovastatin in hyperlipidemic bonnet macaques. These animals were fed ad libitum with a WD for 40 days and then subsequently treated with MTP inhibitors for one month. […] These studies indicate that western diet increases plasma cholesterol and that these increases can be abrogated by treatment with an MTP inhibitor.

Reversa mice = details: for plasma cholesterol / plasma triglycerides: MTP deficient (plpC) Reversa mice, oral 30 days
Protocol: FIG. 11. Reversa animals were injected with plpC every other day for one week. Lovastatin, T-090317 and WY14643 were administered by oral gavage everyday for 30 days after the first injection. Animals were sacrificed on day 30 and plasma and livers were harvested and analyzed. * represent comparison to PBS injected animals and # represent comparisons to plpC control.
Animals: Mttp^tm2Sgy LdIr^tm1Her Apob^tm2Sgy Tg(Mx1-cre)1Cgn/J mice (Reversa) (stock number 004192) were obtained from Jackson Laboratories. Male reversa mice were used to study the effect of mttp gene deletion on plasma and tissue lipids. These animals are transgenic for apolipoprotein B, LDLR^−/− and floxed at exon 1 of the mttp locus. In addition, these mice express cre recombinase under the control of the Mx1 promoter, which is induced after intraperitoneal injection of polyinosinic polycytidylic ribonucleic acid (plpC—Sigma) in the liver, spleen and intestine. Injection of plpC activates the cre recombinase and deletes the mttp gene in the liver and intestines. Reversa mice were injected with either PBS or plpC. Mice injected with plpC were orally gavaged with DMSO (Sigma-Aldrich D8418), DMSO+Lovastatin (50 mg/kg/day) (Calbiochem 438186), DMSO+T0901317 (50 mg/kg/day) (Calbiochem 575310), or DMSO+WY14643 (10 mg/kg/day) (Calbiochem 681725). Mice injected with plpC were also injected with either PBS or Ω-3 fatty acids (SUNY Downstate Medical Center). All animals were given supplemental treatments for 30 days.
as §1
To determine whether accumulation of hepatic triglyceride and free cholesterol is related to increases in plasma AST/ALT, we sought to reduce these lipids using different chemical compounds of known physiologic effects. Mice injected with plpC were orally gavaged with DMSO, DMSO+Lovastatin (50 mg/kg/day), DMSO+T0901317 (50 mg/kg/day), or DMSO+WY14643 (10 mg/kg/day). Lovastatin (Lova), an HMG-CoA reductase (HMGR) inhibitor, and T0901317 (T0), an LXR agonist, are expected to decrease hepatic free cholesterol by inhibiting endogenous cholesterol synthesis and increasing cholesterol efflux, respectively. WY14643 (WY), a PPARα agonist, increases β-oxidation of fatty acids and lowers hepatic triglycerides.
To evaluate the efficacy of Ω-3 FA in reducing hepatic triglyceride, plpC injected mice were treated with intraperitoneal injection of Ω-3 FA (3 mg/kg/2 day) or Ω-3 FA and Lova.

[3] = plpC-injected Reversa mice, Lova 50, T0 50, WY 10 mg/kg/day oral or Ω-3 FA 3 mg/kg/2 day ip, vs plpC control

Compound: CCc1ccc(CCOc2ccc(CC3SC(=O)NC3=O)cc2)nc1 (racemic) [pioglitazone, (RS)-5-(4-[2-(5-ethylpyridin-2-yl)ethoxy]benzyl)thiazolidine-2,4-dione]
- hepatic triglycerides [1]: abrogated
- hepatic free cholesterol ([1]; MTPi one week): reduced
- Hepatic free fatty acids (FFA) ([1]; MTPi one week): resistant
- hepatic total and free cholesterol ([1]; WD fed): decreased
- hepatic triglycerides compared to western diet fed controls ([1]; WD fed): slightly lower
- plasma lipids ([1]; WD fed): no effect
- rise in intestinal free cholesterol seen with MTPi alone ([1]; WD fed, in conjunction with MTPi): attenuated
- Plasma FFA levels ([1]; high fat feeding, MTPi one week, co-drugs with MTPi): completely abrogated
- plasma cholesterol ([2]; WD 40 days): no further significant effect
- plasma AST/ALT levels vs baseline and day 40 ([2]; WD 40 days, then treatment one month): did not show elevated
- Hepatic cholesterol, total and free ([2]; co-drugs with MTP inhibitor): suppressed
- Hepatic triglycerides (biopsies day 40 vs day 68) ([2]; co-drugs with MTP inhibitor): no significant difference

Compound: Cc1cccc(Nc2cc(Cl)nc(SCC(=O)O)n2)c1C [WY14643]
- plasma cholesterol (Reversa mice): no effect
- plasma triglycerides (Reversa mice): no effect
- hepatic free and total cholesterol (Reversa mice; [3]): no effect

Compound: CC[C@H](C)C(=O)O[C@H]1C[C@@H](C)C=C2C=C[C@H](C)[C@H](CC[C@@H]3C[C@@H](O)CC(=O)O3)[C@H]21 [lovastatin]
- hepatic triglycerides ([1]; listed as Lovastatin): without affecting
- plasma ALT/AST levels ([1]; MTPi one week): lowered
- plasma ALT/AST levels ([1]; MTPi one week, listed as Lovastatin): abrogated increases
- hepatic free cholesterol ([1]; MTPi one week): reduced
- Hepatic free fatty acids (FFA) ([1]; MTPi one week): resistant
- Cardiac tissue lipid profiles ([1]; WD fed, MTPi ± pioglitazone or lovastatin): no changes
- hepatic total and free cholesterol ([1]; WD fed): decreased
- hepatic triglycerides compared to western diet fed controls ([1]; WD fed): no effect
- plasma lipids ([1]; WD fed): no effect
- intestinal lipids ([1]; WD fed, with MTPi): no effect
- plasma cholesterol ([2]; WD 40 days): no further significant effect
- Hepatic cholesterol, total and free ([2]; co-drugs with MTP inhibitor): suppressed
- plasma cholesterol (Reversa mice): significantly reduced
- plasma triglycerides (Reversa mice): no effect
- hepatic free and total cholesterol (Reversa mice; [3]): significantly reduced
- hepatic triglyceride (Reversa mice; [3]): no effect
